Source: patent US20250340529A1, “Heterocyclic Compounds as Immunomodulators of PD-L1 Interactions” (Ascletis BioScience Co., Ltd, priority 2021, published 2025)
pEC50, pIC50: −log10 of the molar value.

Columns and labels:
PD-1/PD-L1 = PD-1/PD-L1 (Homo sapiens (Human), UniProt Q9NZQ7); assay: PD-1/PD-L1 Homogeneous Time-Resolved Fluorescence (HTRF) binding assay; conditions: 3 nM PD1, 10 nM PD-L1, 25° C., PBS pH 7.4
Outline: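 HTRF with His-tagged human PD-L1 (19-238, 10 nM) and Fc-tagged human PD-1 (25-167, 3 nM) preincubated with inhibitors 40 min in PBS pH 7.4, 0.05% Tween-20, 0.1% BSA, 1% DMSO, 25° C. Eu anti-human IgG and anti-His-APC added, 60 min; 665/620 nm ratio; IC50 from percent control activity fit.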

PD-L1/CHO-K1 cells = PD-L1/CHO-K1 cells (Homo sapiens (Human), UniProt Q9NZQ7); assay: PD-L1 internalization (FACS, PD-L1/CHO-K1 cells); assay type: cell-based; conditions: % activation of PD-L1 internalization = 1 − PD-L1 signal; 17 hours incubation
Description: Day 1. Seeding cells: Digest the PD-L1/CHO-K1 cells by trypsin in the flask, then counting the cell number and diluted to 1×10^5 cells/ml. Seeding cells to 6 well plate (Corning, #3516), 2 mL/well. The plates were incubated at 37° C., […] incubator for 24 hours.
Day 2. Preparing compounds and treated cells: Dilute GLC01-258 from 15 mM to 0.5 mM by using DMSO, and 15 mM compound were serial diluted from 15 mM˜15 nM by DMSO, Then 500 times dilute the compounds by using assay buffer. Prepare 0.2% DMSO in assay buffer used for Vehicle control and low control. Take out the plates, aspirated the medium and thrown away. Adding 2 mL of the diluted compounds, vehicle control and low control to corresponding wells. Then incubated the plates for 17 hours at 37° C., 5% CO2 incubator.
Day 3. Preparing samples for FACS: After 17 hours incubation, discarded medium and washed by the PBS. Cells in each well were Digested by trypsin. Centrifuge and discard the supernatant, then wash the cells by DPBS (Ca^2+, Mg^2+ free) for twice. 10 fold dilute the antibody (PE-conjugated mouse anti-human CD274) by DPBS, then adding the staining solution to compounds treated samples and vehicle control sample. The low control only add DPBS without antibody. Incubate the plates at room temperature for 20 minutes and protect from light. After 20 minutes, wash the samples by DPBS for twice. Then centrifuge and discard the supernatant. Resuspend cells by 300 uL DPBS and transfer the samples to 5 mL Polystryrene Round-Bottom Tube (Falcon, #352054), then tested by BD FACSCanto. […].
Set the PD-L1 signal of vehicle control as 100%, PD-L1 signal of Low control as 0%. Then calculate the compound treated samples' PD-L1 signal
0% PD-L1 signal: Low control which stained without anti-CD274
100% PD-L1 Signal: vehicle control which stained with anti-CD274
The % activation of PD-L1 Internalization=1−PD-L1 signal of compound.

[1] = target: extracellular domains of PD-L1 (Homo sapiens (Human), UniProt Q9NZQ7); assay: PD-L1 dimerization (biochemical protein-protein interaction assay); conditions: PDL1-Eu and PDL1-A2, 25° C., 120 min
Description: Compounds were tested in biochemical protein-protein interaction assays to determine if they can specifically dimerize the extracellular domains of PD-L1. • (1) Dilute cpd 1:3 in succession in DMSO for each column for 10±0 pts (refer to dilution plate map) • (2) Transfer 0.2 μL cpds solution in each row to 384 assay plate using Echo, each column containing 2 replicates (refer to assay plate map). • (3) Add 20 μL prepared mixture include PDL1-Eu and PDL1-A2 solution to assay plate, centrifuge at 1000 rpm for 1 min. • (4) Incubate at 25° C. for 120 min. • (5) Read fluorescence signal on Envision 2104 plate reader. • (6) Read the Ratio (665 nm/615 nm) signal on Envision. • (7) Analyze the raw data using the equation (V. Data analysis)

[2] = test system: Hep3B-OS8-hPDL1 cells and CD3+ T cells; assay: Hep3B-OS8-hPDL1 and T cells co-culture assay (IFN-γ by ELISA); assay type: cell-based; conditions: Homo sapiens, T-cell, 72 hours, read-out: Tumor and T Cell EC50 (nm)
Description: a. Hep3B-OS8-hPDL1 and T Cells Co-Culture Assay
• 1. Hep3B-OS8-hPDL1 cells were cultured in 1640 medium supplemented with 10% fetal bovine serum, 1% penicillin and streptomycin, in which 100 μg/mL G418 and Hygromycin B were also added. • 2. Hep3B-OS8-hPDL1 cells were harvested and treated with 10 μg/mL mitomycin C at 37° C. for 1.5 h, and the cells were then washed thoroughly with PBS for four times. • 3. Cells were re-suspended with RPMI 1640 medium containing 10% FBS and the cell density was adjusted to 5E5 cells/mL. • 4. Cells were seeded into 96-well flat bottom plate (2.5E4 cells/50 μL/well). b. CD3+ T Cells Isolation (30 mL Blood) • 5. The human blood sample from an individual donor is diluted by the same volume of sterile PBS, for instance add 25 mL sterile PBS into 25 mL fresh whole blood and mix sufficiently by gentle shake. • 6. Transfer 15 mL Lymphoprep medium into a new 50 mL centrifuge tube. • 7. Add the diluted blood sample as soft as possible onto the surface of the Ficoll medium to make sure there is a clear dividing line between the two liquids, and the volume ratio between Ficoll and diluted blood (30 mL) is 1:2. • 8. Move the tube gently to centrifuge, at 1000×g, 25 min, 20° C., with the acceleration (5) and Min deceleration (0) settings during the centrifugation. • 9. Four interfaces in all could be observed after the centrifugation, which are layers of plasma, mononuclear cells, the Ficoll medium and RBCs from top to bottom, and move the tube as gently as possible so as keep the four interfaces separated. Absorb and transfer the second layer of mononuclear cells into another new sterile centrifuge tube carefully, and absorb certain volume of plasma instead of the Ficoll medium if inevitable. • 10. Add sterile PBS of the three times the volume of PBMCs in the tube with PBMC. • 11. Wash the cells twice with 5-10 mL PBS before cell counting with cytometer. Centrifuge at 350×g, 10 min, 20° C. With the acceleration (5) and deceleration (5) settings during the centrifugation. • 12. Resuspend the cells with recommended medium and adjust the density of the PBMCs to the final concentration of 5E7 cells/mL. • 13. Isolate CD3+ T cells with EasySep™ Human T Cell Isolation Kit (STEMCELL Technologies #17951), and the cells were seeded into 96-well flat bottom plate (5E4 cells/100 μL/well). c. Compounds solutions preparation • 14. Prepare the Compounds dilutions in RPMI 1640 medium with 10% FBS according to the Layout. 15. Add compounds into each well in a volume of 50 μL. {3 compounds (GLC01-258, GLC01-269, GLC01-465) in 7 concentrations (0.03, 0.1, 0.3, 1, 3, 10 and 30 μM) and 6 compounds (GLC01-411, GLC01-292, GLC01-445, GLC01-475, GLC01-470 and GLC01-468) in the same concentration (1 μM)}. • 16. […]

Chain of PD-L1/CHO-K1 cells (Q9NZQ7 19-290): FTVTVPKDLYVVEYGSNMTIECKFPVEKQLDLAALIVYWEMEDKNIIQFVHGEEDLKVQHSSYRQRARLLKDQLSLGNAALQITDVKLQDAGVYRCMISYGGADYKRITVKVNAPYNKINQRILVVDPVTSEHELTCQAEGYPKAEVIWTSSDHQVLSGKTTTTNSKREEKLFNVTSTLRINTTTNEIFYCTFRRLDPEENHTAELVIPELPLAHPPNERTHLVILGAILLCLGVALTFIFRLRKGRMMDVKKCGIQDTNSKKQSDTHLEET
Chain of extracellular domains of PD-L1 (Q9NZQ7 19-238): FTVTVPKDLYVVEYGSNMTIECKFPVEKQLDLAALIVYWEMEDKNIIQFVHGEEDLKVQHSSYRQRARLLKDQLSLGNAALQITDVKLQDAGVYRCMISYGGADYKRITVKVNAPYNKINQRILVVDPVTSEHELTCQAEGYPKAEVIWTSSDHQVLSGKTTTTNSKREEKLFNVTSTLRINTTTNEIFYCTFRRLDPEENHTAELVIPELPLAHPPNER
Chain of PD-1/PD-L1 (Q9NZQ7 19-238): as above

pIC50 (PD-1/PD-L1) | Internalization (PD-L1/CHO-K1 cells) [%] | pEC50 [1] | pEC50 [2] | Structure (SMILES)
8.26 | 23.20 | 7.25 | 8.29 | O=C(O)[C@H](CO)NCCN1C(=O)COc2cc(-c3cccc(-c4cccc(-c5cc6c(cc5F)N(CCN[C@@H](CO)C(=O)O)C(=O)CO6)c4Cl)c3Cl)c(F)cc21 [Compound 554, (2S,2'S)-2,2′-((((2,2′-dichloro-[1,1′-biphenyl]-3,3′-diyl)bis(6-fluoro-3-oxo-2,3-dihydro-4H-benzo[b][1,4]oxazine-7,4-diyl))bis(ethane-2,1-diyl))bis(azanediyl))bis(3-hydroxypropanoic acid)]
8.15 | 32.70 | 7.04 | 8.22 | O=C(O)[C@H](CO)NCCN1C(=O)COc2cc(-c3cccc(-c4cccc(-c5ccc6c(c5)OCC(=O)N6C[C@@H]5CCCN5)c4Cl)c3Cl)ccc21 [Compound 533]
